Consider 13 compounds from PubChem BioAssay (NCI).

Each structure is given as a SMILES string. Where “and” joins values, the source holds several entries; their conditions need not be identical. Identical values can stand only once.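 96-well plates; 48 h exposure; 5 concentrations. Endpoints by linear interpolation between flanking doses. Not reached: highest tested concentration assigned. The concentration for 50% growth inhibition is given as GI50. TGI: total growth inhibition.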 Some results are limits rather than exact numbers.

Among the test systems are KM12 colon; HOP-92 NSCLC; LOX IMVI melanoma; SF-295 CNS; NCI-H23 lung; MALME-3M melanoma; HOP-62 NSCLC; ACHN renal; K-562 leukemia; MCF7 breast.
Common to all, as to assay: NCI anticancer screen, dose series, 48 h

For the compound `COc1ccc(NC(=O)C(=O)NNC(=O)c2sc(NNC(C)=O)nc2C)c([N+](=O)[O-])c1`, the TGI in the test with KM12 colon, with HOP-92 NSCLC, in the test on LOX IMVI melanoma, in the test with SF-295 CNS, with NCI-H23 lung and in the test on MALME-3M melanoma was greater than 100 µM in each case. For the same compound, the TGI with HOP-62 NSCLC, in the test with ACHN renal and in the test with K-562 leukemia was greater than 100 µM each time.
In the case of `CCC(C(=O)[O-])C(=O)[O-].CCC(C(=O)[O-])C(=O)[O-].N.N.NCCCCCN.[Pt+4].[Pt+4]`, the GI50 in the test with KM12 colon, with HOP-92 NSCLC, in the test with LOX IMVI melanoma, with SF-295 CNS, with NCI-H23 lung and in the test on MALME-3M melanoma was greater than 100 µM each time. Also, the results for the GI50 in the test with HOP-62 NSCLC, with ACHN renal and in the test with K-562 leukemia were greater than 100 µM, 72.6 µM and greater than 100 µM, respectively. Moreover, the TGI in the test on KM12 colon, in the test with HOP-92 NSCLC, in the test on LOX IMVI melanoma, in the test on SF-295 CNS, in the test on NCI-H23 lung and in the test with MALME-3M melanoma was greater than 100 µM in each case. Moreover, the TGI in the test on HOP-62 NSCLC, in the test with ACHN renal and in the test with K-562 leukemia was greater than 100 µM in each case.
As for `NC(=O)c1csc(C2C=CC(CO)O2)n1` (configuration not stated), the TGI was greater than 10 µM in the test on KM12 colon; greater than 100 µM in the test on HOP-92 NSCLC; greater than 100 µM with LOX IMVI melanoma; greater than 10 µM with SF-295 CNS; greater than 100 µM in the test on NCI-H23 lung; greater than 100 µM with MALME-3M melanoma. Further, the TGI with HOP-62 NSCLC, in the test on ACHN renal and in the test on K-562 leukemia was greater than 100 µM each time.
For `O=C1CC2CCCCC2=C1O` (configuration not stated), the TGI in the test with KM12 colon, with LOX IMVI melanoma, with SF-295 CNS, in the test with NCI-H23 lung, in the test on MALME-3M melanoma and in the test with HOP-62 NSCLC was greater than 100 µM in each case. Moreover, the TGI in the test with ACHN renal and in the test with K-562 leukemia was greater than 100 µM in each case.
Regarding `Cc1ccc(NC(=O)CC(=O)n2nc(-c3ccccc3)c(N=Nc3ccc(Cl)cc3)c2-c2ccccc2)cc1`, the TGI was greater than 100 µM in the test on KM12 colon; 89 µM in the test with HOP-92 NSCLC; 29.9 µM in the test with LOX IMVI melanoma; greater than 100 µM in the test with SF-295 CNS; greater than 100 µM with NCI-H23 lung; greater than 100 µM in the test with MALME-3M melanoma. In addition, the TGI was greater than 100 µM in the test on HOP-62 NSCLC, greater than 100 µM in the test on ACHN renal and 47.1 µM in the test on K-562 leukemia.
For `C/C(=N\NC(=O)CC(=O)Nc1ccc(Cl)cc1)c1cc2ccccc2oc1=O`, the TGI with KM12 colon, with LOX IMVI melanoma, in the test on SF-295 CNS, in the test with NCI-H23 lung, in the test with MALME-3M melanoma and with HOP-62 NSCLC was greater than 100 µM each time. In addition, the TGI in the test with ACHN renal and with K-562 leukemia was greater than 100 µM in each case.
In the case of `Cc1ccc(NS(=O)(=O)c2cc(C(C)(C)C)ccc2OCCOCCOCCOc2ccc(C(C)(C)C)cc2S(=O)(=O)Nc2ccc(C)cc2)cc1`, the TGI in the test on KM12 colon, in the test with HOP-92 NSCLC, in the test with LOX IMVI melanoma, with SF-295 CNS, in the test on NCI-H23 lung and in the test on MALME-3M melanoma was greater than 100 µM in each case. Further, the TGI with HOP-62 NSCLC, with ACHN renal and in the test with K-562 leukemia was greater than 100 µM in each case.
Take `O=C(CC/C(C/C(=N/O)c1ccc(F)cc1)=N/O)N(Cc1ccccc1)Cc1ccccc1`: the TGI in the test with KM12 colon, in the test on HOP-92 NSCLC, with LOX IMVI melanoma, in the test on SF-295 CNS, in the test on NCI-H23 lung and in the test with MALME-3M melanoma was greater than 100 µM throughout. The TGI in the test on HOP-62 NSCLC, with ACHN renal and with K-562 leukemia was greater than 100 µM in each case.
`Cc1ccc(S(=O)(=O)CNC(=S)CCCC(=S)NCS(=O)(=O)c2ccc(C)cc2)cc1`: the TGI with KM12 colon was greater than 100 µM; in the test with HOP-92 NSCLC it was 50.3 µM; with LOX IMVI melanoma, 39.4 µM; with SF-295 CNS, greater than 100 µM; in the test with NCI-H23 lung, greater than 100 µM; in the test on MALME-3M melanoma it was greater than 100 µM. Also, the TGI in the test with HOP-62 NSCLC and in the test with K-562 leukemia was greater than 100 µM throughout.
Consider `N#Cc1c[nH]n2ccnc12`, for which the TGI with KM12 colon, in the test on MCF7 breast, in the test on SF-295 CNS, with NCI-H23 lung, with HOP-62 NSCLC and with ACHN renal was greater than 100 µM in each case. Moreover, the TGI in the test on K-562 leukemia was greater than 100 µM.
As to `Cc1ccc(S(=O)(=O)N2CCC3(C(/C=C/c4ccccc4)=Nc4ccccc43)C2c2ccccc2)cc1` (configuration not stated), the TGI in the test with KM12 colon, in the test on HOP-92 NSCLC, with LOX IMVI melanoma, in the test on SF-295 CNS, in the test with NCI-H23 lung and with MALME-3M melanoma was greater than 100 µM each time. Further, the TGI in the test on HOP-62 NSCLC, in the test with ACHN renal and in the test on K-562 leukemia was greater than 100 µM throughout.
For `CC1=C(C(=O)Nc2ccccc2C)C(c2ccc([N+](=O)[O-])cc2)C(C(=O)Nc2ccccc2C)=C(C)N1`, the TGI with KM12 colon, in the test on LOX IMVI melanoma, in the test on SF-295 CNS, in the test on NCI-H23 lung, in the test on MALME-3M melanoma and in the test with HOP-62 NSCLC was greater than 100 µM each time. The TGI in the test with ACHN renal and in the test with K-562 leukemia was greater than 100 µM each time.
For `CC(=O)OCC1OC(OC2CC3C(C)(C)C(OC(C)=O)CC[C@]3(C)C3CCC45CC4(CC[C@H]5C(C)CC(O)C4OC4(C)C)[C@]23C)C(O)C(O)C1O` (some centres not stated), the GI50 in the test on KM12 colon is 1.56 µM; in the test with LOX IMVI melanoma, 1.25 µM; in the test with SF-295 CNS, 3.34 µM; with NCI-H23 lung it was 2.55 µM; in the test with MALME-3M melanoma, 4.67 µM; in the test with HOP-62 NSCLC it was 2.39 µM. For the same compound, the GI50 in the test with ACHN renal is 3.44 µM. Moreover, the TGI was 3.82 µM and 3.15 µM in the test with KM12 colon; 6.33 µM with HOP-92 NSCLC; 3.72 µM and 2.58 µM in the test on LOX IMVI melanoma; 5.5 µM and 11 µM in the test with SF-295 CNS; 10.4 µM and 6.58 µM in the test with NCI-H23 lung; 16.6 µM and 8.6 µM in the test on MALME-3M melanoma. Moreover, the TGI in the test on HOP-62 NSCLC was 12.6 µM and 5.37 µM; with ACHN renal, 7.28 µM and 11.7 µM; in the test with K-562 leukemia, 2.22 µM.
